EC50 data for 22 compounds are collected here from patent US10689367B2, “Triazole pyridyl compounds as agonists of the APJ receptor” (AMGEN INC., priority 2016, dated 2020).

Sequence of human APJ receptor (P35414 whole entry): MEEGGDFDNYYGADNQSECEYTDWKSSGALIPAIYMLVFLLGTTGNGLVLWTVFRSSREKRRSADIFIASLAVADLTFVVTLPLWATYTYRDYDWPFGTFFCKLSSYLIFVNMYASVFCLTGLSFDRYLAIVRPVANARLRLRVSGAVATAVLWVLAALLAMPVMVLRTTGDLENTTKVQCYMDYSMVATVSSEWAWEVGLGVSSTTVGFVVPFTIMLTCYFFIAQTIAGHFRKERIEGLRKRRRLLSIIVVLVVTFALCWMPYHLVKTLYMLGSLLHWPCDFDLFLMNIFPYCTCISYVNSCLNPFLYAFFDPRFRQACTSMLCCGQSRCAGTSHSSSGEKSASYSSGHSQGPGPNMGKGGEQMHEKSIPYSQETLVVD

The experiment concerns the target human APJ receptor (Homo sapiens (Human), UniProt P35414). The experiment can be described thus: [35S]GTPγS binding assay on membranes from CHO cells stably expressing human APJ receptor. It is filed as biochemical. To be noted: membranes of CHO cells stably expressing human APJ receptor, read-out: Activity hAPJ SPA EC50 IP. An outline of the steps:
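Agonist EC50 values come from non-linear regression of mean data from several independent runs. Membranes of CHO cells stably expressing human APJ were incubated 90 min at room temperature with [35S]GTPγS in buffer with optimized GDP, MgCl2 and NaCl, then read on a microplate imager.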
On the technique in general: Binding of GTPγS marks nucleotide exchange on a G protein.
For orientation: EC50 means the concentration giving half of the maximal effect. Consider `COc1cccc(-c2nnc(NS(=O)(=O)[C@@H](C)[C@@H](OC(C)C)c3ncc(C)cn3)n2[C@@H](C)c2c(C)noc2C)n1` (racemic) [Example 316.0, (1S,2S)-N-(4-((R)-1-(3,5-dimethylisoxazol-4-yl)ethyl)-5-(6-methoxypyridin-2-yl)-4H-1,2,4-triazol-3-yl)-1-isopropoxy-1-(5-methylpyrimidin-2-yl)propane-2-sulfonamide or (1S,2S)-N-(4-((S)-1-(3,5-dimethylisoxazol-4-yl)ethyl)-5-(6-methoxypyridin-2-yl)-4H-1,2,4-triazol-3-yl)-1-isopropoxy-1-(5-methylpyrimidin-2-yl)propane-2-sulfonamide], for which the EC50 amounted to 21 nM.
The same measure for `COCC1(n2c(NS(=O)(=O)[C@@H](C)[C@H](C)c3cnc(C)cn3)nnc2-c2cccnc2)CC1` [Example 66.0]: 38 nM.
In the case of `CC(C)O[C@@H](c1ncc(Cl)cn1)[C@H](C)S(=O)(=O)Nc1nnc(-c2cccnc2)n1C1CC1` [Example 128.0] it was 55 nM; in that of `COc1cccc(-c2nnc(NS(=O)(=O)[C@@H](C)[C@H](OC)c3ncc(Cl)cn3)n2[C@H](C)c2cnn(C)c2)n1` (single isomer, unassigned) [Example 338.0, (1R,2S)-1-(5-chloropyrimidin-2-yl)-1-methoxy-N-(5-(6-methoxypyridin-2-yl)-4-((R)-1-(1-methyl-1H-pyrazol-4-yl)ethyl)-4H-1,2,4-triazol-3-yl)propane-2-sulfonamide or (1R,2S)-1-(5-chloropyrimidin-2-yl)-1-methoxy-N-(5-(6-methoxypyridin-2-yl)-4-((S)-1-(1-methyl-1H-pyrazol-4-yl)ethyl)-4H-1,2,4-triazol-3-yl)propane-2-sulfonamide], 0.56 nM.
As for `COc1cccc(-c2nnc(NS(=O)(=O)[C@@H](C)[C@H](C)c3ncc(Cl)cn3)n2C[C@H]2CCCO2)n1` (racemic) [Example 281.0, (2S,3R)-3-(5-chloropyrimidin-2-yl)-N-(5-(6-methoxypyridin-2-yl)-4-(((R)-tetrahydrofuran-2-yl)methyl)-4H-1,2,4-triazol-3-yl)butane-2-sulfonamide or (2S,3R)-3-(5-chloropyrimidin-2-yl)-N-(5-(6-methoxypyridin-2-yl)-4-(((S)-tetrahydrofuran-2-yl)methyl)-4H-1,2,4-triazol-3-yl)butane-2-sulfonamide], the EC50 was 110 nM.
In the case of `CO[C@H](c1ncc(Cl)cn1)[C@H](C)S(=O)(=O)Nc1nnc(-c2cccnc2)n1C(C1CC1)C1CC1` [Example 112.0], the EC50 was found to be 3.3 nM.
In the case of `COCC(COC)n1c(NS(=O)(=O)[C@@H](C)[C@@H](OC(C)C)c2cnc(C)cn2)nnc1-c1cccc(OC)n1` [Example 105.0] it was 2.8 nM.
Take `COc1cccc(-c2nnc(NS(=O)(=O)[C@@H](C)[C@H](OC)c3ncc(Cl)cn3)n2C[C@@H]2CCCOC2)n1` (racemic) [Example 311.0, (1R,2S)-1-(5-chloropyrimidin-2-yl)-1-methoxy-N-(5-(6-methoxypyridin-2-yl)-4-(((R)-tetrahydro-2H-pyran-3-yl)methyl)-4H-1,2,4-triazol-3-yl)propane-2-sulfonamide or (1R,2S)-1-(5-chloropyrimidin-2-yl)-1-methoxy-N-(5-(6-methoxypyridin-2-yl)-4-(((S)-tetrahydro-2H-pyran-3-yl)methyl)-4H-1,2,4-triazol-3-yl)propane-2-sulfonamide]: the EC50 came out at 33 nM.
In the case of `COc1cccc(-c2nnc(NS(=O)(=O)[C@@H](C)[C@H](OC)c3ncc(Cl)cn3)n2C2C3(CC3)C23CC3)n1` [Example 163.0, (1R,2S)-1-(5-Chloropyrimidin-2-yl)-N-(4-(dispiro[2.0.24.13]heptan-7-yl)-5-(6-methoxypyridin-2-yl)-4H-1,2,4-triazol-3-yl)-1-methoxypropane-2-sulfonamide] it was 52 nM.
The same measure for `COc1cccc(-c2nnc(NS(=O)(=O)[C@@H](C)[C@@H](OC(C)C)c3ncc(C)cn3)n2C[C@H]2CCCO2)n1` (racemic) [Example 278.0, (1S,2S)-1-isopropoxy-N-(5-(6-methoxypyridin-2-yl)-4-(((R)-tetrahydrofuran-2-yl)methyl)-4H-1,2,4-triazol-3-yl)-1-(5-methylpyrimidin-2-yl)propane-2-sulfonamide or (1S,2S)-1-isopropoxy-N-(5-(6-methoxypyridin-2-yl)-4-(((S)-tetrahydrofuran-2-yl)methyl)-4H-1,2,4-triazol-3-yl)-1-(5-methylpyrimidin-2-yl)propane-2-sulfonamide]: 16 nM; for `COc1cccc(-c2nnc(NS(=O)(=O)[C@@H](C)[C@H](OC)c3ncc(Cl)cn3)n2C[C@@H]2CCC[C@H](C)O2)n1` (single isomer, unassigned) [Example 305.0]: 4 nM.
As to `COc1cccc(-c2nnc(NS(=O)(=O)[C@@H](C)[C@H](OC)c3ncc(Cl)cn3)n2C(C2CC2)C2CC2)n1` [Example 25.0, (1R,2S)-1-(5-chloro-2-pyrimidinyl)-N-(4-(dicyclopropylmethyl)-5-(6-methoxy-2-pyridinyl)-4H-1,2,4-triazol-3-yl)-1-methoxy-2-propanesulfonamide], the EC50 was 0.08 nM.
The same measure for `COc1cccc(-c2nnc(NS(=O)(=O)[C@@H](C)[C@H](C)c3ncc(Cl)cn3)n2[C@@H](C)c2c(C)noc2C)n1` (racemic) [Example 314.0, (2S,3R)-3-(5-chloropyrimidin-2-yl)-N-(4-((R)-1-(3,5-dimethylisoxazol-4-yl)ethyl)-5-(6-methoxypyridin-2-yl)-4H-1,2,4-triazol-3-yl)butane-2-sulfonamide or (2S,3R)-3-(5-chloropyrimidin-2-yl)-N-(4-((S)-1-(3,5-dimethylisoxazol-4-yl)ethyl)-5-(6-methoxypyridin-2-yl)-4H-1,2,4-triazol-3-yl)butane-2-sulfonamide]: 33 nM; for `COc1cccc(-c2nnc(NS(=O)(=O)[C@@H](C)[C@H](OC)c3ncc(Cl)cn3)n2C23CC(C2)C3)n1` [Example 263.0, (1R,2S)—N-(4-(Bicyclo[1.1.1]pentan-1-yl)-5-(6-methoxypyridin-2-yl)-4H-1,2,4-triazol-3-yl)-1-(5-chloropyrimidin-2-yl)-1-methoxypropane-2-sulfonamide]: 49 nM; for `CC[C@H]([C@@H]1CCCCO1)n1c(NS(=O)(=O)[C@@H](C)[C@H](OC)c2ncc(C)cn2)nnc1-c1cncc(C)c1` (single isomer, unassigned) [Example 333.0]: 7.7 nM.
In the case of `COc1cccc(-c2nnc(NS(=O)(=O)[C@@H](C)[C@H](OC)c3ncc(Cl)cn3)n2Cc2cc(C)on2)n1` [Example 271.0, (1R,2S)-1-(5-chloropyrimidin-2-yl)-1-methoxy-N-(5-(6-methoxypyridin-2-yl)-4-((5-methylisoxazol-3-yl)methyl)-4H-1,2,4-triazol-3-yl)propane-2-sulfonamide], the EC50 is 5.4 nM.
The same measure for `COCC1(n2c(NS(=O)(=O)[C@@H](C)[C@H](C)c3ncc(Cl)cn3)nnc2-c2cccnc2)CC1` [Example 68.0]: 2.8 nM; for `COc1cccc(-c2nnc(NS(=O)(=O)[C@@H](C)[C@H](C)c3ncc(Cl)cn3)n2[C@@H](C)c2c(C)noc2C)n1` (racemic) [Example 313.0, (2S,3R)-3-(5-chloropyrimidin-2-yl)-N-(4-((R)-1-(3,5-dimethylisoxazol-4-yl)ethyl)-5-(6-methoxypyridin-2-yl)-4H-1,2,4-triazol-3-yl)butane-2-sulfonamide or (2S,3R)-3-(5-chloropyrimidin-2-yl)-N-(4-((S)-1-(3,5-dimethylisoxazol-4-yl)ethyl)-5-(6-methoxypyridin-2-yl)-4H-1,2,4-triazol-3-yl)butane-2-sulfonamide]: 21 nM.
In the case of `COc1cccc(-c2nnc(NS(=O)(=O)[C@@H](C)[C@H](OC)c3ncc(Cl)cn3)n2[C@H](C)c2cscn2)n1` (single isomer, unassigned) [Example 345.0, (1R,2S)-1-(5-chloropyrimidin-2-yl)-1-methoxy-N-(5-(6-methoxypyridin-2-yl)-4-((S)-1-(thiazol-4-yl)ethyl)-4H-1,2,4-triazol-3-yl)propane-2-sulfonamide or (1R,2 S)-1-(5-chloropyrimidin-2-yl)-1-methoxy-N-(5-(6-methoxypyridin-2-yl)-4-((R)-1-(thiazol-4-yl)ethyl)-4H-1,2,4-triazol-3-yl)propane-2-sulfonamide] it was 1.1 nM; in that of `COc1cccc(-c2nnc(NS(=O)(=O)[C@@H](C)[C@H](C)c3ncc(Cl)cn3)n2[C@@H](C)c2ncc(C)o2)n1` (single isomer, unassigned) [Example 258.0, (2S,3R)-3-(5-chloro-2-pyrimidinyl)-N-(5-(6-methoxy-2-pyridinyl)-4-((1S)-1-(5-methyl-1,3-oxazol-2-yl)ethyl)-4H-1,2,4-triazol-3-yl)-2-butanesulfonamide or (2S,3R)-3-(5-chloro-2-pyrimidinyl)-N-(5-(6-methoxy-2-pyridinyl)-4-((1R)-1-(5-methyl-1,3-oxazol-2-yl)ethyl)-4H-1,2,4-triazol-3-yl)-2-butanesulfonamide], 0.88 nM.
The same measure for `COc1cccc(-c2nnc(NS(=O)(=O)[C@@H](C)[C@H](OC)c3ncc(Cl)cn3)n2C2(C3CC3)CC2)n1` [Example 107.0]: 0.42 nM; for `COc1cccc(-c2nnc(NS(=O)(=O)[C@@H](C)[C@H](C)c3ncc(Cl)cn3)n2[C@@H](C)c2ncc(C)o2)n1` (single isomer, unassigned) [Example 257.0, (2S,3R)-3-(5-chloro-2-pyrimidinyl)-N-(5-(6-methoxy-2-pyridinyl)-4-((1S)-1-(5-methyl-1,3-oxazol-2-yl)ethyl)-4H-1,2,4-triazol-3-yl)-2-butanesulfonamide or (2S,3R)-3-(5-chloro-2-pyrimidinyl)-N-(5-(6-methoxy-2-pyridinyl)-4-((1R)-1-(5-methyl-1,3-oxazol-2-yl)ethyl)-4H-1,2,4-triazol-3-yl)-2-butanesulfonamide]: 16 nM.
